Experiments:
[1] = tested on: activin receptor-like (ALK) receptor; experiment: TGF-beta receptor family inhibitor added to cell cultures at stage 2 of differentiation; assay type: cell-based, human; details: about 2.5, 5 and 10 μM added to the cell cultures at stage 2
Excerpt: The differentiation culture conditions were substantially similar to that described in d'Amour et al. 2006. d'Amour et al. 2006 describe a 5 step differentiation protocol: stage 1 (definitive endoderm; d 1-d 4), stage 2 (primitive gut tube or foregut endoderm; d 5 to d 8), stage 3 (posterior foregut or Pdx1 endoderm; d 9 to d 12), stage 4 (pancreatic endoderm, or pancreatic epithelium and endocrine precursor; d 13 to d 15) and stage 5 (hormone expressing endocrine cell, d 16 or more). As in d'Amour et al. 2006, the undifferentiated cells were cultured for one day (d 1) in RPMI containing 100 ng/ml Activin A (R&D Systems) and 25 ng/ml recombinant human WNT3a (R&D Systems), two days (d 2 and d 3) in RPMI medium containing 0.2% fetal bovine serum (FBS, Specialty Media) and 100 ng/ml Activin A. The embodiments described herein were slightly modified beginning at day 3 (d 3). The cells from day 3 (definitive endoderm) were cultured for three days (d 4 to d 6; foregut endoderm) in RPMI medium containing 2% FBS, 50 ng/ml recombinant human KGF/FGF7 (R&D Systems), and 0.25 μM KAAD-cyclopamine (Toronto Research Chemicals). Activin is removed from cells at this stage. […]

[2] = tested on: Human embryonic stem cell lines; experiment: hESC differentiation by 6-step 15-day protocol with or without Wnt3a in step 1, real-time quantitative PCR; assay type: cell-based; details: Wnt3a 25 ng/mL added during the first step
Protocol: Human embryonic stem cell lines were also differentiated for 15 days via a 6-step protocol to achieve islet hormone-expressing cells. The first step comprised 3 days differentiation with either; i) activin A (100 ng/ml) or ii) activin A (100 ng/ml) and Wnt3a (25 ng/mL) to robustly produce DE (D'Amour, K., et al., Nature Biotechnology 23, 1534-1541, (2005)). Step 2 comprised 3 days differentiation in RPMI with 2% FBS containing FGF10 (50 ng/mL) and KAAD-cyclopamine (0.5 μM). Step 3 comprised 2 days differentiation in CMRL with B27 supplement (1:100) containing FGF10 (50 ng/mL), KAAD-cyclopamine (0.5 μM) and retinoic acid (2 μM). Step 4 comprised 2 days differentiation in CMRL with B27 supplement (1:100) containing retinoic acid (2 μM) and DAPT (1 μM). Step 5 comprised 2 days differentiation in CMRL with B27 supplement (1:100) containing DAPT (1 μM) and exendin 4 (40 ng/mL). Step 6 comprised 3 days differentiation in CMRL with B27 supplement (1:100) containing exendin 4 (40 ng/mL). Duplicate samples were taken from each plate at multiple time points and gene expression was analyzed by real-time quantitative PCR.

Molecule	Effect on cell differentiation [1]	Effect on endocrine cell differentiation [2]
NC(=O)c1ccc(-c2nc(-c3ccc4c(c3)OCO4)c(-c3ccccn3)[nH]2)cc1 [SB-431542]	potentiated cell differentiation	
Wnt3a: wingless-type MMTV integration site family member 3A (protein, UniProt P56704 19-352, looked up) Protein Wnt-3a: SYPIWWSLAVGPQYSSLGSQPILCASIPGLVPKQLRFCRNYVEIMPSVAEGIKIGIQECQHQFRGRRWNCTTVHDSLAIFGPVLDKATRESAFVHAIASAGVAFAVTRSCAEGTAAICGCSSRHQGSPGKGWKWGGCSEDIEFGGMVSREFADARENRPDARSAMNRHNNEAGRQAIASHMHLKCKCHGLSGSCEVKTCWWSQPDFRAIGDFLKDKYDSASEMVVEKHRESRGWVETLRPRYTYFKVPTERDLVYYEASPNFCEPNPETGSFGTRDRTCNVSSHGIDGCDLLCCGRGHNARAERRREKCRCVFHWCCYVSCQECTRVYDVHTCK		marked enhancement of endocrine cell differentiation

— patent US9980986B2, “Methods of producing pancreatic hormones” (ViaCyte, Inc., priority 2006, dated 2018)
